# Test results reported in patent publication US8119644B2, “Thiadiazole-substituted arylamides as P2X3 and P2X2/3 antagonists” (Roche Palo Alto LLP, priority 2008, dated 2012).
# Tests used:
# human P2X2/3 receptor = target: T1, human P2X2/3 receptor (Homo sapiens, UniProt P56373+Q9UBL9); assay: P2X2/3 FLIPR (Fluorometric Imaging Plate Reader) assay, CHO-K1 cells; format: cell-based; details: CHO-K1 cells transfected with human P2X2/3; agonist α,β-meATP 5 μM; Fluo-3 calcium fluorescence; read-out: P2X2/3 (pKi) (converted)
# T1 construct: expressed in transfected cells; host or cells: CHO-K1
# T1 sequence (Q9UBL9 1-471): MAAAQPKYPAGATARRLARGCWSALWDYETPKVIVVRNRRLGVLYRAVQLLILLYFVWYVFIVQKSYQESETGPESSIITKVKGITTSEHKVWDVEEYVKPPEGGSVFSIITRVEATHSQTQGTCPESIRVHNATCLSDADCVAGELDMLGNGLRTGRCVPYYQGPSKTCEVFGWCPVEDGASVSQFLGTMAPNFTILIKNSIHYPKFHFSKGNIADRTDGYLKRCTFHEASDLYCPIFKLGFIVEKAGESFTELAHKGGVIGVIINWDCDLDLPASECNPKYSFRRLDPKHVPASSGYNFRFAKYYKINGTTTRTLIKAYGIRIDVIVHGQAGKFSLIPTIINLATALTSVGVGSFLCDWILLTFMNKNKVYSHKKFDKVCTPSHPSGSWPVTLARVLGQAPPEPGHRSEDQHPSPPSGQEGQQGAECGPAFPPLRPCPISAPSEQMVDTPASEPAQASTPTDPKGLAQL
# T1 sequence (P56373 1-397): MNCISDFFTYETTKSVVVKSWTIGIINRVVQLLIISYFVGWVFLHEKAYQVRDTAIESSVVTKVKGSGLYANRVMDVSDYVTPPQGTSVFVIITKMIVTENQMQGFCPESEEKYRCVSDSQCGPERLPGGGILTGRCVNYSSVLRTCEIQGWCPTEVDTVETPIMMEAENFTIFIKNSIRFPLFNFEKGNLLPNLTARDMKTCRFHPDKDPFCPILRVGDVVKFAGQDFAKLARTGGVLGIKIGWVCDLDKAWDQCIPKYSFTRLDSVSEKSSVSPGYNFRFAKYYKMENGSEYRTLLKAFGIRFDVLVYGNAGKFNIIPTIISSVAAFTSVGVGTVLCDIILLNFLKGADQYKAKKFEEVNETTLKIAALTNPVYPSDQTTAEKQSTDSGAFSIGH
# Description: (§1) P2X3/P2X2/3 FLIPR (Fluorometric Imaging Plate Reader) Assay
# (§2) CHO-K1 cells were transfected with cloned rat P2X3 or human P2X2/3 receptor subunits and passaged in flasks. 18-24 hours before the FLIPR experiment, cells were released from their flasks, centrifuged, and resuspended in nutrient medium at 2.5×10^5 cells/ml. The cells were aliquoted into black-walled 96-well plates at a density of 50,000 cells/well and incubated overnight in 5% CO2 at 37° C. On the day of the experiment, cells were washed in FLIPR buffer (calcium- and magnesium-free Hank's balanced salt solution, 10 mM HEPES, 2 mM CaCl2, 2.5 mM probenecid; FB). Each well received 100 μl FB and 100 μl of the fluorescent dye Fluo-3 AM [2 μM final conc.]. After a 1 hour dye loading incubation at 37° C., the cells were washed 4 times with FB, and a final 75 μl/well FB was left in each well.
# (§3) Test compounds (dissolved in DMSO at 10 mM and serially diluted with FB) or vehicle were added to each well (25 μl of a 4× solution) and allowed to equilibrate for 20 minutes at room temperature. The plates were then placed in the FLIPR and a baseline fluorescence measurement (excitation at 488 nm and emission at 510-570 nm) was obtained for 10 seconds before a 100 μl/well agonist or vehicle addition. The agonist was a 2× solution of α,β-meATP producing a final concentration of 1 μM (P2X3) or 5 μM (P2X2/3). Fluorescence was measured for an additional 2 minutes at 1 second intervals after agonist addition. A final addition of ionomycin (5 μM, final concentration) was made to each well of the FLIPR test plate to establish cell viability and maximum fluorescence of dye-bound cytosolic calcium. Peak fluorescence in response to the addition of α,β-meATP (in the absence and presence of test compounds) was measured and inhibition curves generated using nonlinear regression. PPADS, a standard P2X antagonist, was used as a positive control.
# rat P2X3 receptor = target: T2, rat P2X3 receptor (Rattus norvegicus, UniProt P49654); assay: P2X3 FLIPR (Fluorometric Imaging Plate Reader) assay, CHO-K1 cells; format: cell-based; details: CHO-K1 cells transfected with cloned rat P2X3; agonist α,β-meATP 1 μM; Fluo-3 calcium fluorescence; read-out: P2X3 (pKi) (converted)
# T2 construct: expressed in transfected cells; host or cells: CHO-K1
# T2 sequence (P49654 1-397): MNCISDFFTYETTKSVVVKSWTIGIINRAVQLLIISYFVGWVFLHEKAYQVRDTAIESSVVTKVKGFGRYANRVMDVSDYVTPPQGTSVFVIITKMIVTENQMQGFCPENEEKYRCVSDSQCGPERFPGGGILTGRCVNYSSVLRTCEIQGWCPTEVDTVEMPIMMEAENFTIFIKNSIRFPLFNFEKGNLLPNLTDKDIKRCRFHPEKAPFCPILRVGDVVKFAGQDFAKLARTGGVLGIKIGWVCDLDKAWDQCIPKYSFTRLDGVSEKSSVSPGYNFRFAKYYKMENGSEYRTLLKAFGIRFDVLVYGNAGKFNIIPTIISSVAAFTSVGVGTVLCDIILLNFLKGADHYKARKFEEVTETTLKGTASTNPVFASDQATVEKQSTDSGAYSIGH
# Description: as §1, §2, §3
compound,measurement,setting,value
"Cc1ccc(-c2cc(C(=O)N[C@H](C)CO)cc(-c3nsnc3C(C)C)c2)nc1 [Compound 1, N-((R)-2-Hydroxy-1-methyl-ethyl)-3-(4-isopropyl-[1,2,5]thiadiazol-3-yl)-5-(5-methyl-pyridin-2-yl)-benzamide]",Ki,human P2X2/3 receptor,72.4 nM
same,Ki,rat P2X3 receptor,6.92 nM
"COCC(C)NC(=O)c1cc(-c2ccc(C)cc2)cc(-c2csnn2)c1 (stereo not shown) [Compound 2, 4′-Methyl-5-[1,2,3]thiadiazol-4-yl-biphenyl-3-carboxylic acid (2-methoxy-1-methyl-ethyl)-amide]",Ki,rat P2X3 receptor,4680 nM
"Cc1ccc(-c2cc(C(=O)NCc3cnc(C)cn3)cc(-c3snnc3C(C)C)c2)nc1 [Compound 3, 3-(4-Isopropyl-[1,2,3]thiadiazol-5-yl)-N-(5-methyl-pyrazin-2-ylmethyl)-5-(5-methyl-pyridin-2-yl)-benzamide]",Ki,human P2X2/3 receptor,37.2 nM
same,Ki,rat P2X3 receptor,9.12 nM
"Cc1ccc(-c2cc(C(=O)N[C@H](C)CO)cc(-c3snnc3C(C)C)c2)nc1 [Compound 4, N-((R)-2-Hydroxy-1-methyl-ethyl)-3-(4-isopropyl-[1,2,3]thiadiazol-5-yl)-5-(5-methyl-pyridin-2-yl)-benzamide]",Ki,human P2X2/3 receptor,214 nM
same,Ki,rat P2X3 receptor,4.27 nM
"Cc1ccc(-c2cc(C(=O)NCc3cnc(C)nc3)cc(-c3snnc3C(C)C)c2)nc1 [Compound 5, 3-(4-Isopropyl-[1,2,3]thiadiazol-5-yl)-5-(5-methyl-pyridin-2-yl)-N-(2-methyl-pyrimidin-5-ylmethyl)-benzamide]",Ki,human P2X2/3 receptor,33.9 nM
same,Ki,rat P2X3 receptor,8.91 nM
"Cc1ccc(-c2cc(C(=O)NCc3ncc(C)cn3)cc(-c3snnc3C(C)C)c2)nc1 [Compound 6, 3-(4-Isopropyl-[1,2,3]thiadiazol-5-yl)-5-(5-methyl-pyridin-2-yl)-N-(5-methyl-pyrimidin-2-ylmethyl)-benzamide]",Ki,human P2X2/3 receptor,105 nM
same,Ki,rat P2X3 receptor,16.6 nM
"Cc1ccc(-c2cc(C(=O)NCc3cnc(C)cn3)cc(-c3nsnc3C(C)C)c2)nc1 [Compound 7, 3-(4-Isopropyl-[1,2,5]thiadiazol-3-yl)-N-(5-methyl-pyrazin-2-ylmethyl)-5-(5-methyl-pyridin-2-yl)-benzamide]",Ki,human P2X2/3 receptor,43.7 nM
same,Ki,rat P2X3 receptor,18.2 nM
